In patent US20260108615A1, “SELF-ASSEMBLED MUCOADHESIVE BIOPOLYMER PARTICLE RELEASE SYSTEM AND PREPARATION METHOD THEREOF” (SZEGEDI TUDOMÁNYEGYETEM, priority 2021, published 2026):

Tests used:
Assay type in all cases: physicochemical
[1] = in vitro DOX release through cellulose membrane into PBS buffer
Protocol: The DOX release was measured according to the following: the in vitro experiments of the DOX releasing were performed using a cellulose membrane (Sigma-Aldrich, avg. flat width 10 mm (0.4 in.)). The released DOX amount from the bare and conjugated form was spectrophotometrically measured by monitoring the change in the intensity of the characteristic absorbance peak of DOX at λ=481 nm. DOX concentration is directly proportional to the maximal absorption values estimated at 481 nm [CDOX (mg/ml) (A at 481 nm)/18.836; R^2=0.996], according to the calibration curve previously determined within the range of 0-0.066 mg/ml. Solid powder of pure drug and conjugated form (corresponding to 0.045 mg/ml of DOX) were inserted in a cellulose membrane that was closed and dropped into 20 ml of a PBS buffer solution with pH=7.4 (37° C.; 0.9 wt % NaCl content). 3 ml of the aqueous solution was pulled from the release media at selected interval times and DOX concentration was measured. The release profiles of DOX released from different forms are shown in FIG. 14a in percent form and FIG. 14b in concentration form, releasing from the bare DOX was too fast a process with a maximum releasing percent of 78%. […] According to Table 2, releasing from the bare DOX data were fitted with the Higuchi model that describes the drug release a diffusion process based on Fick's law which is square root time-dependent, assumes the diffusivity of the drug is constant.

[2] = in-vitro drug-releasing profile of KETO; conditions: FIG. 17
[3] = in-vitro drug-releasing profile of HBA; conditions: FIG. 18

## COc1cccc2c1C(=O)c1c(O)c3c(c(O)c1C2=O)C[C@@](O)(C(=O)CO)C[C@@H]3O[C@H]1C[C@H](N)[C@H](O)[C@H](C)O1 [Pure DOX, doxorubicin]
[1]; PBS at 37° C., after one day of release
  concentration of DOX in PBS buffer solution after one day (decomposition): continuously decreased
[1]; PBS pH=7.4, 37° C., 0.9 wt % NaCl, cellulose membrane
  maximum releasing percent: 78%
[1]; fit of DOX release data
  First-order model k: 0.2689
  Higuchi model k: 36.808
  Hixson-Crowell model k: 0.0063
  Korsmeyer-Peppas model k: 26.18
  Korsmeyer-Peppas model n (release exponent): 0.763
  Zero-order model k: 13.11

## CC(C(=O)O)c1cccc(C(=O)c2ccccc2)c1 (stereo not shown) [bare KETO, ketoprofen]
[2]
  KETO releasing process: fast releasing process for the first 5 h

## OCc1ccc(O)cc1 [Bare HBA, 4-hydroxybenzyl alcohol]
[3]
  HBA releasing process: very rapid release process for the first 3 h
